According to ChEMBL document CHEMBL3259607, “Hot spot-based design of small-molecule inhibitors for protein-protein interactions” (Bioorg Med Chem Lett, 2014):
One block for each compound: values may come before it.

How the values were obtained:
[1] = molecular target: T1, Interferon alpha/beta receptor 1 (Homo sapiens, UniProt P17181); assay: Binding affinity to IFNAR (unknown origin) assessed as inhibition of interaction with IFN-alpha
T1 sequence (P17181 whole entry): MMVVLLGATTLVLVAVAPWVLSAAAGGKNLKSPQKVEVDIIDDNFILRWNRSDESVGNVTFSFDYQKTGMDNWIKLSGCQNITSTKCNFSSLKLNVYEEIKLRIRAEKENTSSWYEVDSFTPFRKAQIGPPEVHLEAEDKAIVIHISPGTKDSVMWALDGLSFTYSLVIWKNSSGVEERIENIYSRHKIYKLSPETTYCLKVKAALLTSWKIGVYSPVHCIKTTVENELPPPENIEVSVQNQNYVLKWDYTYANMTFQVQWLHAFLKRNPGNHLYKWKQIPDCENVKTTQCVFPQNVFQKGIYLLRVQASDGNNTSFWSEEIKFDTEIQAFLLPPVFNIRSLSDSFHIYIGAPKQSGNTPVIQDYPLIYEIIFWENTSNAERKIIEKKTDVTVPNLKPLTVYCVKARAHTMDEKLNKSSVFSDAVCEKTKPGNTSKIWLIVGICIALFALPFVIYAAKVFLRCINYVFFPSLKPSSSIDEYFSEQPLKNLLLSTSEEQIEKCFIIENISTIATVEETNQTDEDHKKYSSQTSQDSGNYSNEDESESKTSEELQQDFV

[2] = molecular target: Von Hippel-Lindau disease tumor suppressor/Elongin B/Elongin C (Homo sapiens, UniProt P40337); assay: Displacement of FAM-DEALAHyp-YIPD from VHL/elongins-B/elonginC (unknown origin) by fluorescence polarization assay; assay type: protein-complex assay
Sequence of Von Hippel-Lindau disease tumor suppressor/Elongin B/Elongin C (P40337 whole entry, looked up): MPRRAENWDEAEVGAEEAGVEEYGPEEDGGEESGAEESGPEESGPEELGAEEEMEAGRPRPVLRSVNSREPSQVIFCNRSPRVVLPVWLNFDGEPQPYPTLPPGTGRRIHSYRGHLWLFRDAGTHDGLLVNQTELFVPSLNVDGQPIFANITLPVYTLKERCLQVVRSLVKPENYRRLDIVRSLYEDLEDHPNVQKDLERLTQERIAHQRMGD

[3] = molecular target: TCF4/beta-catenin (Homo sapiens, UniProt P35222+Q9NQB0); assay: Inhibition of beta-catenin/T cell factor (unknown origin); assay type: protein-complex assay
Sequence of TCF4/beta-catenin (P35222 whole entry): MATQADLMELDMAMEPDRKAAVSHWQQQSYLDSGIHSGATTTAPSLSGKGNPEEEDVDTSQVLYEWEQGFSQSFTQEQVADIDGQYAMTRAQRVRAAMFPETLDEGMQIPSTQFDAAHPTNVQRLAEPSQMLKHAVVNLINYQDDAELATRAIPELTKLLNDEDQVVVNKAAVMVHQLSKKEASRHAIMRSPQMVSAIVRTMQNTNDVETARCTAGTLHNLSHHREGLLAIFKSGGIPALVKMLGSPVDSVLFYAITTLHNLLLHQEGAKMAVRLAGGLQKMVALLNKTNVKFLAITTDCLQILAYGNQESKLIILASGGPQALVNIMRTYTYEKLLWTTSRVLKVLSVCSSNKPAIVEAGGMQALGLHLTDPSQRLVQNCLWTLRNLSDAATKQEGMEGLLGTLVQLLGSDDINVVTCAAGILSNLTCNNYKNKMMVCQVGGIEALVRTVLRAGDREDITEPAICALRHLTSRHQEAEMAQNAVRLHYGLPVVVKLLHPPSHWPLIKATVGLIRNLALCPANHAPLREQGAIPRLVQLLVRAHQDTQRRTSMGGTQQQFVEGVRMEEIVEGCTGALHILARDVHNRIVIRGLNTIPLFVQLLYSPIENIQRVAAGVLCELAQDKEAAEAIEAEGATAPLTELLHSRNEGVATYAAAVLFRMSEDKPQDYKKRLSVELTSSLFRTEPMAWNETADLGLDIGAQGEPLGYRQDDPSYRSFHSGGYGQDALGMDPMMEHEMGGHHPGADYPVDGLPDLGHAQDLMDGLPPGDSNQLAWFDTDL
Sequence of TCF4/beta-catenin (Q9NQB0 whole entry): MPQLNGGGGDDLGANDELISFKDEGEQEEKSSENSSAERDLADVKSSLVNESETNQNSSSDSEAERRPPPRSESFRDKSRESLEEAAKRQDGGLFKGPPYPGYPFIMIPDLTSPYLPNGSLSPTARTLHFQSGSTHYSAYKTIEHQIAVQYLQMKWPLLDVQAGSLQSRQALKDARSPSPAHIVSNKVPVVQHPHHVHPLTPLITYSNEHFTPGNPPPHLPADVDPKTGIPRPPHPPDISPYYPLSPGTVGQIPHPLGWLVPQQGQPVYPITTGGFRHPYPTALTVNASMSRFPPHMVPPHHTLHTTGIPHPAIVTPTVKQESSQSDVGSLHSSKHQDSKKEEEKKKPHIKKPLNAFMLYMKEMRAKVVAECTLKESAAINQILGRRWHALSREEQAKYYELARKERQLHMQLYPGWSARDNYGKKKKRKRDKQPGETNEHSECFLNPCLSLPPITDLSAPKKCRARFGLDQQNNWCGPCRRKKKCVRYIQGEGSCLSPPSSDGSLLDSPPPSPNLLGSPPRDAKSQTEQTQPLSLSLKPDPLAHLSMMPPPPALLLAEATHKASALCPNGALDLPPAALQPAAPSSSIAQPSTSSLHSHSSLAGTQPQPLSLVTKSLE

- Kd [1]: 4000 nM
SMILES: CNCc1ccccc1Sc1cccc2ccccc12

- IC50 [2]: 900 nM
SMILES: Cc1ncsc1-c1ccc(CNC(=O)[C@@H]2C[C@@H](O)CN2C(=O)c2cccc(N)c2C)cc1

- Ki [3]: 1350 nM
SMILES: Oc1noc2cc(CCc3nn[nH]n3)ccc12
